Experimental data as given in ChEMBL document CHEMBL1201862, “PubChem BioAssay data set” (2004).
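Values below derive from 48-hour exposures of cells grown in 96-well plates, with endpoints linearly interpolated between the two concentrations bracketing the appropriate inhibition level. At the GI50, growth is halved.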 Active and inactive are the calls of the source. Cut-off read from the data, not from the text of the source: active = GI50 up to about 1.1 µM and inactive = higher.

What was measured:
Assay in all cases: NCI-60 cell line screen, 48 h
Hs-578T = tested on: Hs-578T
SNB-19 = tested on: SNB-19
A549 = tested on: A549
HCT-15 = tested on: HCT-15
DU-145 = tested on: DU-145
MCF7 = tested on: MCF7
HCT-116 = tested on: HCT-116
HT-29 = tested on: HT-29
SF-268 = tested on: SF-268
HL-60 = tested on: HL-60
NCI-H226 = tested on: NCI-H226
OVCAR-8 = tested on: OVCAR-8
CCRF-CEM = tested on: CCRF-CEM
LOX IMVI = tested on: LOX IMVI
MOLT-4 = tested on: MOLT-4
NCI-H460 = tested on: NCI-H460
SNB-75 = tested on: SNB-75
SN12C = tested on: SN12C
NCI-H23 = tested on: NCI-H23
MDA-MB-231 = tested on: MDA-MB-231

Compound	GI50 (Hs-578T)	GI50 (SNB-19)	GI50 (A549)	GI50 (HCT-15) [µM]	GI50 (DU-145)	GI50 (MCF7)	GI50 (HCT-116)	GI50 (HT-29)	GI50 (SF-268)	GI50 (HL-60)	GI50 (NCI-H226)	GI50 (OVCAR-8)	GI50 (CCRF-CEM)	GI50 (LOX IMVI)	GI50 (MOLT-4)	GI50 (NCI-H460)	GI50 (SNB-75)	GI50 (SN12C)	GI50 (NCI-H23)	GI50 (MDA-MB-231)
CC(=O)N1CCc2c([nH]c3ccc(Br)cc23)C1c1ccccc1 (stereo not drawn)	> 10 µM (inactive)	> 10 µM (inactive)	0.912 µM (active)	0.194	> 10 µM (inactive)	2.75 µM (inactive)	1.11 µM (active)	5.37 µM (inactive)	> 9.02 µM (inactive)	2.55 µM (inactive)	> 10 µM (inactive)	> 5.07 µM (inactive)	1.47 µM (inactive)	2 µM (inactive)	0.697 µM (active)	0.522 µM (active)	7.96 µM (inactive)			
O=C(Cn1c2c(c3ccccc31)CCCC2)NC1CCCCC1	55 µM (inactive)	> 100 µM (inactive)	> 100 µM (inactive)	> 100		> 100 µM (inactive)	> 100 µM (inactive)	> 100 µM (inactive)	77.3 µM (inactive)	0.405 µM (active)		> 100 µM (inactive)	> 100 µM (inactive)	68.5 µM (inactive)	> 10 µM (inactive)	> 100 µM (inactive)		> 100 µM (inactive)	> 100 µM (inactive)	
COc1ccc(/C=C2\CCC(CNc3ccc(Br)cc3)C2=O)cc1 (stereo not drawn)		> 100 µM (inactive)	93.8 µM (inactive)	8.45	> 100 µM (inactive)	21.5 µM (inactive)		> 100 µM (inactive)	> 100 µM (inactive)	24.5 µM (inactive)	> 100 µM (inactive)	> 100 µM (inactive)	31.8 µM (inactive)	25.9 µM (inactive)	34.1 µM (inactive)	76 µM (inactive)		10.2 µM (inactive)	> 100 µM (inactive)	53.3 µM (inactive)
COc1cc(Nc2c(C#N)[n+]([O-])c3ccccc3[n+]2[O-])cc(OC)c1OC	> 100 µM (inactive)	28.6 µM (inactive)	43.8 µM (inactive)	15.6	43.3 µM (inactive)	24.2 µM (inactive)	16.4 µM (inactive)	29.9 µM (inactive)	27.2 µM (inactive)	41.2 µM (inactive)		31.9 µM (inactive)	27 µM (inactive)	26.7 µM (inactive)	42 µM (inactive)	35.2 µM (inactive)	> 100 µM (inactive)	35.8 µM (inactive)	19.6 µM (inactive)	
CC1(C)OP(=O)(c2ccccc2)C=C1Sc1ccc([N+](=O)[O-])cc1[N+](=O)[O-] (stereo not drawn)	> 100 µM (inactive)	> 100 µM (inactive)	> 100 µM (inactive)	65.5	74.6 µM (inactive)	41.5 µM (inactive)	36.6 µM (inactive)	45.6 µM (inactive)	52.1 µM (inactive)	15.9 µM (inactive)	> 100 µM (inactive)	62.1 µM (inactive)		36.6 µM (inactive)		> 100 µM (inactive)	> 100 µM (inactive)	45.9 µM (inactive)	77.6 µM (inactive)	
Cc1ccc2[nH]c3[nH]c(=O)[nH]c(=O)c3c2c1	> 100 µM (inactive)	> 100 µM (inactive)	> 100 µM (inactive)	> 100	> 100 µM (inactive)	> 100 µM (inactive)	> 100 µM (inactive)	> 100 µM (inactive)	> 100 µM (inactive)	> 100 µM (inactive)	> 100 µM (inactive)	> 100 µM (inactive)	> 100 µM (inactive)	> 100 µM (inactive)	> 100 µM (inactive)		> 100 µM (inactive)	> 100 µM (inactive)	> 100 µM (inactive)	
O=C(Nc1cccc2nsnc12)c1cc2c(cc1Cl)Sc1nccn1S2(=O)=O	4.25 µM (inactive)	12.1 µM (inactive)	17.3 µM (inactive)	5.19		1.73 µM (inactive)	2.77 µM (inactive)	2.74 µM (inactive)	3.62 µM (inactive)	1.85 µM (inactive)	25.9 µM (inactive)	2.73 µM (inactive)	3.28 µM (inactive)	8.43 µM (inactive)	2.95 µM (inactive)	2.4 µM (inactive)	8.02 µM (inactive)	13.6 µM (inactive)	11.2 µM (inactive)	8.26 µM (inactive)
Cc1cc2c(cc1C)[n+]([O-])c(C(=O)C/C(=N/NC(=O)CC#N)C(=O)Nc1ccccc1C(F)(F)F)c(C)[n+]2[O-]		75 µM (inactive)	35 µM (inactive)	36.6			4.05 µM (inactive)	49.3 µM (inactive)	39.9 µM (inactive)	24.3 µM (inactive)	26.9 µM (inactive)	50.8 µM (inactive)	25.4 µM (inactive)	53.8 µM (inactive)	52 µM (inactive)	34.4 µM (inactive)	36.6 µM (inactive)	76 µM (inactive)	91.4 µM (inactive)	
Cc1nnc(Nc2ccccc2)o1		> 100 µM (inactive)	> 100 µM (inactive)	> 100	> 100 µM (inactive)	> 100 µM (inactive)	> 100 µM (inactive)	> 100 µM (inactive)	> 100 µM (inactive)	> 100 µM (inactive)	> 100 µM (inactive)	> 100 µM (inactive)	> 100 µM (inactive)	> 100 µM (inactive)	> 100 µM (inactive)		> 100 µM (inactive)	> 100 µM (inactive)	> 100 µM (inactive)	
CC1=Nc2ccccc2OC(C)=C1/N=N/c1ccc2[nH]c(C)nc2c1		> 100 µM (inactive)	> 100 µM (inactive)	> 100	> 100 µM (inactive)	45.8 µM (inactive)	> 100 µM (inactive)	> 100 µM (inactive)	> 100 µM (inactive)	> 100 µM (inactive)	> 100 µM (inactive)	> 100 µM (inactive)	> 100 µM (inactive)	66.2 µM (inactive)	> 100 µM (inactive)	55.2 µM (inactive)	25.1 µM (inactive)	84.7 µM (inactive)	> 100 µM (inactive)	> 100 µM (inactive)
CC(=O)Nc1ccc(Cl)c(Cl)c1		> 100 µM (inactive)	> 100 µM (inactive)	> 100			> 100 µM (inactive)	> 100 µM (inactive)	> 100 µM (inactive)	> 10 µM (inactive)	> 100 µM (inactive)	> 100 µM (inactive)	> 100 µM (inactive)	> 100 µM (inactive)	> 100 µM (inactive)	> 100 µM (inactive)	> 100 µM (inactive)	> 100 µM (inactive)	> 100 µM (inactive)	
COc1cc(OC)cc(-c2cc(O)c3cc4c(cc3n2)OCO4)c1		0.8 µM (active)	0.428 µM (active)	0.263			0.169 µM (active)	0.295 µM (active)	0.54 µM (active)	0.162 µM (active)	0.251 µM (active)	0.395 µM (active)	0.206 µM (active)	0.367 µM (active)	0.364 µM (active)	0.26 µM (active)	2.32 µM (inactive)	0.367 µM (active)	0.351 µM (active)	
NC1=NS(=O)(=O)Nc2[nH]c(-c3ccccc3)nc21		> 100 µM (inactive)	> 100 µM (inactive)	> 100			> 100 µM (inactive)	> 100 µM (inactive)	> 100 µM (inactive)	> 100 µM (inactive)	> 100 µM (inactive)	> 100 µM (inactive)	> 100 µM (inactive)	> 100 µM (inactive)	> 100 µM (inactive)	> 100 µM (inactive)	> 100 µM (inactive)	> 100 µM (inactive)	> 100 µM (inactive)	
CCc1c(CNC2=NCCN2)c(CC)c(CNC2=NCCN2)c(CC)c1CNC1=NCCN1	> 100 µM (inactive)	> 100 µM (inactive)	> 100 µM (inactive)	> 100	> 100 µM (inactive)	> 100 µM (inactive)	> 100 µM (inactive)	> 100 µM (inactive)	> 100 µM (inactive)		> 100 µM (inactive)	> 100 µM (inactive)	> 100 µM (inactive)		> 100 µM (inactive)	> 100 µM (inactive)	> 100 µM (inactive)	> 100 µM (inactive)	> 100 µM (inactive)	
NC(=O)C(=CN1C(=O)CC(=O)NC1=S)C(N)=O		> 100 µM (inactive)	> 100 µM (inactive)	> 100	> 100 µM (inactive)	> 100 µM (inactive)	> 100 µM (inactive)	> 100 µM (inactive)	> 100 µM (inactive)	> 100 µM (inactive)	> 100 µM (inactive)	> 100 µM (inactive)		> 100 µM (inactive)	> 100 µM (inactive)	> 100 µM (inactive)	> 100 µM (inactive)	> 100 µM (inactive)	> 100 µM (inactive)	> 100 µM (inactive)
CC(C)N(C(=O)C12C3C4C1C1C2C3C41C(=O)O)C(C)C (stereo not drawn)		> 100 µM (inactive)	> 100 µM (inactive)	> 100			> 100 µM (inactive)	> 100 µM (inactive)	> 100 µM (inactive)	> 100 µM (inactive)	> 100 µM (inactive)	> 100 µM (inactive)	> 100 µM (inactive)	> 100 µM (inactive)	> 100 µM (inactive)	> 100 µM (inactive)	> 100 µM (inactive)	> 100 µM (inactive)	> 100 µM (inactive)	
